# In PubChem BioAssay (NCI):
#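 Briefly, cells in 96-well plates were exposed to five compound concentrations for 48 h, and endpoints were estimated by linear interpolation. TGI is the concentration that stops growth completely.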
# Key:
# Assay in all cases: NCI tumour cell line growth inhibition, 48 h
# CCRF-CEM leukemia = test system: CCRF-CEM leukemia
# A498 renal = test system: A498 renal
# 786-0 renal = test system: 786-0 renal
# NCI-H522 lung = test system: NCI-H522 lung
# EKVX NSCLC = test system: EKVX NSCLC
# MALME-3M melanoma = test system: MALME-3M melanoma
# UO-31 renal = test system: UO-31 renal
# NCI-H226 lung = test system: NCI-H226 lung
# MCF7 breast = test system: MCF7 breast
# SF-295 CNS = test system: SF-295 CNS
# RPMI-8226 leukemia = test system: RPMI-8226 leukemia
# SK-MEL-5 melanoma = test system: SK-MEL-5 melanoma
# OVCAR-3 ovarian = test system: OVCAR-3 ovarian
# SK-OV-3 ovarian = test system: SK-OV-3 ovarian
# M14 melanoma = test system: M14 melanoma
# OVCAR-5 ovarian = test system: OVCAR-5 ovarian
# LOX IMVI melanoma = test system: LOX IMVI melanoma
# HCC-2998 colon = test system: HCC-2998 colon
# NCI-H23 lung = test system: NCI-H23 lung
# UACC-62 melanoma = test system: UACC-62 melanoma
# CAKI-1 renal = test system: CAKI-1 renal
# SF-539 CNS = test system: SF-539 CNS
# SNB-75 CNS = test system: SNB-75 CNS
# HL-60(TB) leukemia = test system: HL-60(TB) leukemia
# COLO 205 colon = test system: COLO 205 colon
# NCI-H460 lung = test system: NCI-H460 lung
# OVCAR-8 ovarian = test system: OVCAR-8 ovarian
# OVCAR-4 ovarian = test system: OVCAR-4 ovarian
# HCT-15 colon = test system: HCT-15 colon
# TK-10 renal = test system: TK-10 renal
# A549 NSCLC = test system: A549 NSCLC
# RXF 393 renal = test system: RXF 393 renal
# SR leukemia = test system: SR leukemia
# K-562 leukemia = test system: K-562 leukemia
# HT29 colon = test system: HT29 colon
# IGROV1 ovarian = test system: IGROV1 ovarian
# MDA-MB-231 breast = test system: MDA-MB-231 breast
# BT-549 breast = test system: BT-549 breast
# PC-3 prostate = test system: PC-3 prostate
# SW-620 colon = test system: SW-620 colon
# NCI/ADR-RES ovarian = test system: NCI/ADR-RES ovarian
# HCT-116 colon = test system: HCT-116 colon
# UACC-257 melanoma = test system: UACC-257 melanoma
# SF-268 CNS = test system: SF-268 CNS
# MDA-MB-435 = test system: MDA-MB-435
# SK-MEL-2 melanoma = test system: SK-MEL-2 melanoma
# ACHN renal = test system: ACHN renal
# SK-MEL-28 melanoma = test system: SK-MEL-28 melanoma
# U251 CNS = test system: U251 CNS
# HOP-62 NSCLC = test system: HOP-62 NSCLC
# KM12 colon = test system: KM12 colon
# T-47D breast = test system: T-47D breast
# HS 578T breast = test system: HS 578T breast
# SNB-19 CNS = test system: SNB-19 CNS
# MOLT-4 leukemia = test system: MOLT-4 leukemia
# MDA-N = test system: MDA-N
# SN12C renal = test system: SN12C renal
# HOP-92 NSCLC = test system: HOP-92 NSCLC
# DU-145 prostate = test system: DU-145 prostate
smiles,measurement,setting,value
ClCc1nn(-c2ccccc2)c(CCl)c1CCl,TGI,CCRF-CEM leukemia,6.02 µM
same,TGI,A498 renal,24.5 µM
same,TGI,786-0 renal,8.77 µM
same,TGI,NCI-H522 lung,10.2 µM
same,TGI,EKVX NSCLC,8.97 µM
same,TGI,MALME-3M melanoma,9.88 µM
same,TGI,UO-31 renal,11.5 µM
same,TGI,NCI-H226 lung,13.9 µM
same,TGI,MCF7 breast,16 µM
same,TGI,SF-295 CNS,26.5 µM
same,TGI,RPMI-8226 leukemia,7.18 µM
same,TGI,SK-MEL-5 melanoma,8.43 µM
same,TGI,OVCAR-3 ovarian,11 µM
same,TGI,SK-OV-3 ovarian,23.3 µM
same,TGI,M14 melanoma,10.3 µM
same,TGI,OVCAR-5 ovarian,15.2 µM
same,TGI,LOX IMVI melanoma,4.29 µM
same,TGI,HCC-2998 colon,24.7 µM
same,TGI,NCI-H23 lung,14.3 µM
same,TGI,UACC-62 melanoma,14.4 µM
same,TGI,CAKI-1 renal,20.6 µM
same,TGI,SF-539 CNS,6.34 µM
same,TGI,SNB-75 CNS,11.4 µM
same,TGI,HL-60(TB) leukemia,6.78 µM
same,TGI,COLO 205 colon,8.95 µM
same,TGI,NCI-H460 lung,12.5 µM
same,TGI,OVCAR-8 ovarian,6.17 µM
same,TGI,OVCAR-4 ovarian,7.61 µM
same,TGI,HCT-15 colon,9.06 µM
same,TGI,TK-10 renal,21.3 µM
same,TGI,A549 NSCLC,24.5 µM
same,TGI,RXF 393 renal,15.3 µM
same,TGI,SR leukemia,4.41 µM
same,TGI,K-562 leukemia,6.34 µM
same,TGI,HT29 colon,9.9 µM
same,TGI,IGROV1 ovarian,18.2 µM
same,TGI,MDA-MB-231 breast,12.1 µM
same,TGI,BT-549 breast,18.3 µM
same,TGI,PC-3 prostate,18.4 µM
same,TGI,SW-620 colon,11.4 µM
same,TGI,NCI/ADR-RES ovarian,> 100 µM
same,TGI,HCT-116 colon,7.54 µM
same,TGI,UACC-257 melanoma,25 µM
same,TGI,SF-268 CNS,17.4 µM
same,TGI,MDA-MB-435,6.6 µM
same,TGI,SK-MEL-2 melanoma,15.5 µM
same,TGI,ACHN renal,7.62 µM
same,TGI,SK-MEL-28 melanoma,12.4 µM
same,TGI,U251 CNS,6.05 µM
same,TGI,HOP-62 NSCLC,33.8 µM
same,TGI,KM12 colon,11.9 µM
same,TGI,T-47D breast,16.4 µM
same,TGI,HS 578T breast,58.3 µM
same,TGI,SNB-19 CNS,19.9 µM
same,TGI,MOLT-4 leukemia,6.76 µM
same,TGI,MDA-N,8.88 µM
same,TGI,SN12C renal,11.1 µM
same,TGI,HOP-92 NSCLC,9.85 µM
same,TGI,DU-145 prostate,16.6 µM
